Like-named read-outs stand apart in the source and are kept apart here.
Columns and labels:
ion channel site = system: ion channel site; set-up: method as in PMID 26325093; settings: displacement binding studies; cited from earlier work
NMDA-R ion channel site = system: NMDA-R ion channel site; set-up: method as in PMID 26325093; settings: rats, 3 mg ∙ kg^−1 IV, cited from earlier work
[1] = Tolerability of ketamine infusion; type: in vivo, human
Experimental: (§1) The (S+)-isomer of ketamine (0.5 mg · kg^−1) was dissolved in NaCl 50 mL and administered intravenously in a pseudo-steady state model with a sub-acute loading dose. First, ketamine was administered for 40 min at a rate of 0.006 mg · kg^−1 · min^−1 followed by a 130 min equilibrium phase at 0.002 mg · kg^−1 · min^−1. [^18F]PK-209 injection and start of PET were performed at 10 min into the equilibrium phase, following 0.26 mg · kg^−1 administration in the preceding 50 min.

[2] = Plasma ketamine concentration during PET; type: in vivo, human
Source text: The final arterial plasma input function was derived using both continuous and discrete arterial blood data. The input function was corrected for plasma to whole blood ratio, metabolites, and time delay. For each scan, two additional plasma input functions were generated to investigate the effect of within-subject and between-subject variability in plasma data. For the within-subject averaged input function, the mean of PET1 and PET2 [^18F]PK-209 parent fractions per subject were used at each of the eight sample timepoints for both scans. For the population-averaged input function, the mean parent fractions for all five subjects in the TRT and ketamine groups (i.e., 10 scans) were taken at each timepoint. The manual arterial blood samples were also used for assessment of the plasma ketamine concentration. The area under the ketamine concentration–time curve was estimated by means of the trapezoidal rule.
as §1

[3] = set-up: method as in PMID 18176855; settings: 1.1 mg ∙ kg^−1 S-ketamine over 75 min; cited from earlier work
ion channel of NMDA-R = biological target: ion channel of NMDA-R; set-up: method as in PMID 25648682; settings: unlabelled compounds; rat forebrain membranes; read-out: concentrations that inhibit specific binding of [^3H]MK-801; cited from earlier work
NMDA-R = system: NMDA-R; set-up: method as in PMID 26661185; settings: humans; intravenous ketamine 0.3 mg · kg^−1; on average; cited from earlier work
PCP binding site = settings: cited from earlier work

C[C@]12N[C@H](Cc3ccccc31)c1ccccc12 [MK-801]
potency relative to (±)ketamine at the ion channel site (ion channel site): two orders of magnitude more potent

CNC1(c2ccccc2Cl)CCCCC1=O (racemic) [(±)ketamine]
inhibition of [^3H]MK-801 binding (NMDA-R ion channel site; 1 min post-dosing): 67% | inhibition of [^3H]MK-801 binding (NMDA-R ion channel site; 20 min post-dose): 19%

CNC1(c2ccccc2Cl)CCCCC1=O (stereo not drawn) [ketamine]
tolerability ([1]; S-ketamine 0.5 mg · kg^−1 intravenous infusion, healthy subjects): well tolerated by all subjects | feelings of dissociation ([1]; at the start of PET scanning): reported by all subjects | mean plasma ketamine concentration, plateau ([2]; between 20 and 60 min after the start of PET, 0.5 mg ∙ kg^−1 infusion): ~ 100 ng ∙ mL^−1 | mean plasma ketamine concentration ([2]; end of the scan, 160 min since the start of infusion): ~ 70 ng ∙ mL^−1 | mean plasma concentration [3]: 173 ng/mL

COc1cccc(N(C)C(=N)Nc2cc(SC)ccc2Cl)c1 [GMOM, reference compound]
K i (ion channel of NMDA-R): 21.7 nM

COc1cccc(N(C)C(=N)Nc2cc(SC)ccc2Cl)c1 [[^11C]GMOM, [11C]N-(2-chloro-5-thiomethylphenyl)-N′-(3-methoxy-phenyl)-N′-methylguanidine]
reduction of radiotracer net influx rate (Ki) in whole brain gray matter (NMDA-R): 66%

CSc1cccc(N(C)C(N)=Nc2cc(SCC[18F])ccc2Cl)c1 [[^18F]GE-179]
block of the PET signal by cold GE-179 (PCP binding site; GE-179 0.6 mg ∙ kg^−1 at steady state, bolus-plus-infusion, anesthetized non-human primates): did not significantly block the PET signal | specificity of the PET signal (PCP binding site; preclinical in vivo evaluation): largely non-specific

— paper PMC6063804 (EJNMMI Research, 2018)
